The compounds below were run against T1, prostanoid receptor subtype (mouse EP1) (Mus musculus, UniProt P35375) (assay: Binding assay using expression cell of prostanoid receptor subtype (3H-PGE2 competition, CHO cell membrane fraction)). Conditions: membrane fraction of CHO cell expressing mouse EP1; 3H-PGE2 2.5 nM; Ki=IC50/(1+([C]/Kd)); read-out: dissociation constant Ki.
T1 construct: expressed in transfected cells; host or cells: CHO cells (membrane fraction)
T1 sequence (P35375 1-405): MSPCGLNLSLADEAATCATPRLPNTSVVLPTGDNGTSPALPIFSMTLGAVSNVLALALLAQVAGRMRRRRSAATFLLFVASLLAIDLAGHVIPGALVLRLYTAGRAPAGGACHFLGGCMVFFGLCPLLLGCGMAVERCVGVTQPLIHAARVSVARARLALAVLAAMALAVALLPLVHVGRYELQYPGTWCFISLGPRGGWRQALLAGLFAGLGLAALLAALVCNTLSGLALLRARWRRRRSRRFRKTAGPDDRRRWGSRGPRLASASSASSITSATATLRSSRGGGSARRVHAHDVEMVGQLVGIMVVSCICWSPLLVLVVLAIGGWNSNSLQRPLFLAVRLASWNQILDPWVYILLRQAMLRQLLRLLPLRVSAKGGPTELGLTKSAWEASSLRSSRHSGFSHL
Method: (i) Binding Assay Using Expression Cell of Prostanoid Receptor Subtype
The preparation of membrane fraction was carried out according to the method of Sugimoto et al (J. Biol. Chem. 267, 6463-6466 (1992)), using expression CHO cell of prostanoid receptor subtype (mouse EP1).
The standard assay mixture contained membrane fraction (0.5 mg/ml), ^3H-PGE2 in a final volume of 200 μl was incubated for 1 hour at room temperature. The reaction was terminated by addition of 3 ml of ice-cold buffer. The mixture was rapidly filtered through a glass filter (GF/B). The radioactivity associated with the filter was measured by liquid scintillation counting.
Kd and Bmax values were determined from Scratchard plots (Ann. N.Y. Acad. Sci. 51, 660 (1949)). Non-specific binding was calculated as the bond in the presence of an excess (2.5 μM) of unlabeled PGE2. In the experiment for competition of specific ^3H-PGE2 was added at a concentration of 2.5 nM and the compound of the present invention was added at a various concentration. The following buffer was used in all reaction.
Buffer: potassium phosphate (pH6.0, 10 mM), EDTA (1 mM), MgCl2 (10 mM), NaCl (0.1M).
The dissociation constant Ki (μM) of each compound was calculated by the following equation.
In the case of `O=C(O)c1ccc(NC(=O)c2cc(Br)ccc2NS(=O)(=O)c2ccc(Cl)cc2)cc1` [2(k), 4-[2-(4-chlorophenylsulfonylamino)-5-bromobenzoylamino]benzoic acid], the Ki is reported as 99 nM.
`O=C(O)c1ccc(COc2cc(C(F)(F)F)ccc2N(C2CCCC2)S(=O)(=O)c2ccccc2)cc1` [18(30), 4-[2-(N-cyclopentyl-phenylsulfonylamino)-5-trifluoromethylphenoxymethyl]benzoic acid] gave a Ki of 1.6 nM.
`CC(C)N(c1ccc(C(F)(F)F)cc1OC[C@H]1CC[C@H](C(=O)O)CC1)S(=O)(=O)c1ccccc1` [18(38), trans-4-[2-(N-isopropyl-phenylsulfonylamino)-5-trifluoromethylphenoxymethyl]cyclohexanoic acid] showed a Ki of 16 nM.
With `CC(C)N(c1ccc(Cl)cc1OCc1ccc(C(=O)O)cc1)S(=O)(=O)c1cccs1` [18(58), 4-[2-(N-isopropyl-2-thienylsulfonylamino)-5-chlorophenoxymethyl]benzoic acid] the Ki was 6.2 nM.
With `CCCS(=O)(=O)N(Cc1ccccc1)c1ccc(C)cc1OCc1ccc(C(=O)O)cc1` [18(75), 4-[2-(N-benzyl-propylsulfonylamino)-5-methylphenoxymethyl]benzoic acid] the Ki was 5.4 nM.
`CC(C)CN(c1ccc(C(F)(F)F)cc1OCc1ccc(/C=C/C(=O)O)cc1)S(=O)(=O)c1ccco1` [18(94), 4-[2-(N-isobutyl-2-furanylsulfonylamino)-5-trifluoromethylphenoxymethyl]cinnamic acid] gave a Ki of 0.4 nM.
Work on `CCN(c1ccc(C(F)(F)F)cc1OCc1ccc(/C=C/C(=O)O)cc1)S(=O)(=O)c1ccccc1` [18(102), 4-[2-(N-ethyl-phenylsulfonylamino)-5-trifluoromethylphenoxymethyl]cinnamic acid] yielded a Ki of 0.2 nM.
`Cc1ccc(N(C(C)C)S(=O)(=O)CC2CCCC2)c(OCc2ccc(C(=O)O)cc2)c1` [20(20), 4-[2-(N-isopropyl-cyclopentylmethylsulfonylamino)-5-methylphenoxymethyl]benzoic acid] was tested, and the Ki was 9.9 nM.
In the case of `O=C(O)c1ccc(COc2cc(Cl)ccc2NS(=O)(=O)c2ccccc2)nc1` [22(3), 6-(2-phenylsulfonylamino-5-chlorophenoxymethyl)nicotinic acid], the Ki is reported as 480 nM.
`CC(C)N(c1ccc(Cl)cc1OCc1ccc(C(=O)O)o1)S(=O)(=O)c1ccccc1` [24(9), 5-[2-(N-isopropyl-phenylsulfonylamino)-5-chlorophenoxymethyl]furan-2-carboxylic acid] gave a Ki of 18 nM.
`CC(C)N(c1ccc(C(F)(F)F)cc1OCc1ccc(OCC(=O)O)cc1)S(=O)(=O)c1ccccc1` [Example 24, 4-[2-(N-isopropyl-phenylsulfonylamino)-5-trifluoromethylphenoxymethyl]phenoxy acetic acid] was tested, and the Ki was 5.8 nM.
With `CC(C)N(c1ccc(C(F)(F)F)cc1N(C)Cc1ccc(C(=O)O)cc1)S(=O)(=O)c1ccccc1` [Example 30, 4-[N-methyl-[2-(N-isopropyl-phenylsulfonylamino)-5-trifluoromethylphenyl]aminomethyl]benzoic acid] the Ki was 73 nM.
Work on `O=C(O)c1ccc(COc2ncc(C(F)(F)F)cc2NS(=O)(=O)c2ccccc2)cc1` [Example 38, 4-(3-phenylsulfonylamino-5-trifluoromethylpyridine-2-yloxymethyl)benzoic acid] yielded a Ki of 160 nM.
`O=C(O)c1ccc(COc2cc(Cl)ccc2CNS(=O)(=O)c2ccccc2)cc1` [Example 43, 4-(2-phenylsulfonylaminomethyl-5-chlorophenoxymethyl)benzoic acid] gave a Ki of 380 nM.
For `CC(C)N(c1ccc(C(F)(F)F)cc1OCc1ccc(C#CC(=O)O)cc1)S(=O)(=O)c1ccccc1` [Example 44, 4-[2-(N-isopropyl-phenylsulfonylamino)-5-trifluoromethylphenoxymethyl]phenylpropiolic acid], the Ki was 1.3 nM.
For `CC(C)N(c1ccc(C(F)(F)F)cc1/C=C/c1ccc(C(=O)O)cc1)S(=O)(=O)c1ccccc1` [Example 48, 4-[2-[2-(N-isopropyl-phenylsulfonylamino)-5-trifluoromethylphenyl]-(E)-vinyl]benzoic acid], the Ki was 10 nM.

From patent US6790866B2, “Sulfonamide and carboxamide derivatives and drugs containing the same as the active ingredient” (Ono Pharmaceutical Co., Ltd., priority 1996, dated 2004)
